PubChem BioAssay AID180 (DTP/NCI, 2004)
Several values for one entry are separate records, joined by “and”; a condition that tells them apart may be missing. Identical values can stand only once.

Test system: BDF1 mice, Adenocarcinoma 755 s.c., tumor weight T/C
Assay: NCI In Vivo Anticancer Drug Screen. Data for tumor model Adenocarcinoma 755 (subcutaneous) in B6D2F1 (BDF1) mice
Details: endpoint: mean tumor weight, higher = larger tumour
Summary of the method: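 Compound activity was tested in mice carrying transplanted tumors. Survival or tumor size was measured, and each value is the treated-group measurement divided by that of the vehicle-treated control group (T/C).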

[1] = dose: 37.5 mg/kg/injection, schedule: Q01DX011 (ip), vehicle: carboxymethylcellulose (CMC)
[2] = dose: 75.0 mg/kg/injection, schedule: Q01DX011 (ip), vehicle: carboxymethylcellulose (CMC)
[3] = dose: 50.0 mg/kg/injection, schedule: Q01DX011 (ip), vehicle: carboxymethylcellulose (CMC)
[4] = dose: 100.0 mg/kg/injection, schedule: Q01DX011 (ip), vehicle: carboxymethylcellulose (CMC)
[5] = dose: 125.0 mg/kg/injection, schedule: Q01DX011 (ip), vehicle: methylcellulose (MC)
[6] = dose: 250.0 mg/kg/injection, schedule: Q01DX011 (ip), vehicle: methylcellulose (MC)

COc1cc(-c2ccc(N=Nc3c(O)ccc4ccccc34)c(OC)c2)ccc1N=Nc1ccc2c(S(=O)(=O)O)cc(S(=O)(=O)O)c(N)c2c1O
T/C (dose: 62.0 mg/kg/injection, schedule: Q01DX011 (ip), vehicle: carboxymethylcellulose (CMC)): 63 % of control and 75 % of control | T/C (dose: 112.0 mg/kg/injection, schedule: Q01DX011 (ip), vehicle: carboxymethylcellulose (CMC)): 60 % of control and 79 % of control | T/C (dose: 225.0 mg/kg/injection, schedule: Q01DX011 (ip), vehicle: carboxymethylcellulose (CMC)): 39 % of control and 64 % of control | T/C (dose: 450.0 mg/kg/injection, schedule: Q01DX011 (ip), vehicle: carboxymethylcellulose (CMC)): 29 % of control

CC1(C)O[C@@H]2C[C@H]3[C@@H]4CCC5=CC(=O)C=C[C@]5(C)[C@@]4(F)[C@@H](O)C[C@]3(C)[C@]2(C(=O)CO)O1
T/C (dose: 0.7 mg/kg/injection, schedule: Q01DX011 (sc), vehicle: steriod suspending solution): 38 % of control | T/C (dose: 3.0 mg/kg/injection, schedule: Q01DX011 (sc), vehicle: steriod suspending solution): 53 % of control | T/C (dose: 6.0 mg/kg/injection, schedule: Q01DX011 (sc), vehicle: steriod suspending solution): 40 % of control

O=C(O)Cc1ccc(C2CCCCC2)cc1
T/C [1]: 164 % of control | T/C [2]: 81 % of control | T/C (dose: 150.0 mg/kg/injection, schedule: Q01DX011 (ip), vehicle: carboxymethylcellulose (CMC)): 120 % of control | T/C (dose: 300.0 mg/kg/injection, schedule: Q01DX011 (ip), vehicle: carboxymethylcellulose (CMC)): 53 % of control

CCOC(=O)C(Cc1ccc(N(CCCl)CCCl)cc1)NC=O (stereo not given)
T/C (dose: 5.0 mg/kg/injection, schedule: Q01DX011 (ip), vehicle: carboxymethylcellulose (CMC)): 75 % of control | T/C (dose: 10.0 mg/kg/injection, schedule: Q01DX011 (ip), vehicle: carboxymethylcellulose (CMC)): 43 % of control | T/C (dose: 20.0 mg/kg/injection, schedule: Q01DX011 (ip), vehicle: carboxymethylcellulose (CMC)): 48 % of control | T/C (dose: 40.0 mg/kg/injection, schedule: Q01DX011 (ip), vehicle: carboxymethylcellulose (CMC)): 3 % of control | T/C (dose: 80.0 mg/kg/injection, schedule: Q01DX011 (ip), vehicle: carboxymethylcellulose (CMC)): 6 % of control

CNc1ncnc2c1cnn2C
T/C (dose: 5.0 mg/kg/injection, schedule: Q01DX011 (ip), vehicle: methylcellulose (MC)): 65 % of control | T/C (dose: 10.0 mg/kg/injection, schedule: Q01DX011 (ip), vehicle: methylcellulose (MC)): 55 % of control | T/C (dose: 20.0 mg/kg/injection, schedule: Q01DX011 (ip), vehicle: methylcellulose (MC)): 29 % of control

CCCCCCCCCCCCCCCCC(C(=O)O)C(O)(CC(=O)O)C(=O)O (stereo not given)
T/C (dose: 19.0 mg/kg/injection, schedule: Q01DX011 (ip), vehicle: carboxymethylcellulose (CMC)): 96 % of control | T/C [1]: 49 % of control | T/C [2]: 59 % of control

CN(C)[C@@H]1C(=O)C(C(=O)NCc2nc3[nH]cnc(=S)c3[nH]2)=C(O)[C@@]2(O)C(=O)C3=C(O)c4c(O)cccc4[C@@](C)(O)[C@H]3C[C@@H]12
T/C (dose: 1.0 mg/kg/injection, schedule: Q01DX011 (ip), vehicle: carboxymethylcellulose (CMC)): 64 % of control | T/C (dose: 2.0 mg/kg/injection, schedule: Q01DX011 (ip), vehicle: carboxymethylcellulose (CMC)): 44 % of control | T/C (dose: 3.0 mg/kg/injection, schedule: Q01DX011 (ip), vehicle: carboxymethylcellulose (CMC)): 78 % of control | T/C (dose: 4.0 mg/kg/injection, schedule: Q01DX011 (ip), vehicle: carboxymethylcellulose (CMC)): 62 % of control | T/C (dose: 14.0 mg/kg/injection, schedule: Q01DX011 (ip), vehicle: carboxymethylcellulose (CMC)): 1 % of control and 3 % of control and 5 % of control | T/C (dose: 28.0 mg/kg/injection, schedule: Q01DX011 (ip), vehicle: carboxymethylcellulose (CMC)): 1 % of control and 2 % of control | T/C (dose: 56.0 mg/kg/injection, schedule: Q01DX011 (ip), vehicle: carboxymethylcellulose (CMC)): 6 % of control

Oc1ccc2ccccc2c1N=Nc1ccc(Cl)cc1
T/C (dose: 3.1 mg/kg/injection, schedule: Q01DX011 (ip), vehicle: other): 15 % of control | T/C (dose: 6.25 mg/kg/injection, schedule: Q01DX011 (ip), vehicle: other): 108 % of control | T/C (dose: 12.5 mg/kg/injection, schedule: Q01DX011 (ip), vehicle: other): 91 % of control and 84 % of control | T/C (dose: 25.0 mg/kg/injection, schedule: Q01DX011 (ip), vehicle: other): 56 % of control and 62 % of control | T/C [3]: 50 % of control | T/C [4]: 40 % of control | T/C (dose: 100.0 mg/kg/injection, schedule: Q01DX011 (ip), vehicle: other): 24 % of control and 49 % of control | T/C (dose: 100.0 mg/kg/injection, schedule: Q01DX011 (ip), vehicle: saline): 81 % of control | T/C (dose: 200.0 mg/kg/injection, schedule: Q01DX011 (ip), vehicle: carboxymethylcellulose (CMC)): 34 % of control | T/C (dose: 200.0 mg/kg/injection, schedule: Q01DX011 (ip), vehicle: other): 25 % of control | T/C (dose: 200.0 mg/kg/injection, schedule: Q01DX011 (ip), vehicle: saline): 38 % of control | T/C (dose: 400.0 mg/kg/injection, schedule: Q01DX011 (ip), vehicle: carboxymethylcellulose (CMC)): 36 % of control | T/C (dose: 400.0 mg/kg/injection, schedule: Q01DX011 (ip), vehicle: other): 14 % of control and 24 % of control | T/C (dose: 400.0 mg/kg/injection, schedule: Q01DX011 (ip), vehicle: saline): 28 % of control | T/C (dose: 800.0 mg/kg/injection, schedule: Q01DX011 (ip), vehicle: carboxymethylcellulose (CMC)): 16 % of control | T/C (dose: 800.0 mg/kg/injection, schedule: Q01DX011 (ip), vehicle: other): 6 % of control | T/C (dose: 1200.0 mg/kg/injection, schedule: Q01DX011 (ip), vehicle: other): 9 % of control

Nc1nc(SCc2ccccn2)c2[nH]cnc2n1
T/C (dose: 0.78 mg/kg/injection, schedule: Q01DX011 (ip), vehicle: methylcellulose (MC)): 63 % of control | T/C (dose: 1.56 mg/kg/injection, schedule: Q01DX011 (ip), vehicle: methylcellulose (MC)): 14 % of control | T/C (dose: 3.12 mg/kg/injection, schedule: Q01DX011 (ip), vehicle: methylcellulose (MC)): 3 % of control | T/C (dose: 6.25 mg/kg/injection, schedule: Q01DX011 (ip), vehicle: methylcellulose (MC)): 2 % of control

O=S(=O)(O)c1cccnc1
T/C (dose: 19.63 mg/kg/injection, schedule: Q01DX011 (ip), vehicle: carboxymethylcellulose (CMC)): 68 % of control | T/C (dose: 37.36 mg/kg/injection, schedule: Q01DX011 (ip), vehicle: carboxymethylcellulose (CMC)): 91 % of control and 101 % of control | T/C (dose: 39.25 mg/kg/injection, schedule: Q01DX011 (ip), vehicle: carboxymethylcellulose (CMC)): 99 % of control | T/C (dose: 62.5 mg/kg/injection, schedule: Q01DX011 (ip), vehicle: methylcellulose (MC)): 108 % of control | T/C (dose: 78.5 mg/kg/injection, schedule: Q01DX011 (ip), vehicle: carboxymethylcellulose (CMC)): 152 % of control | T/C [5]: 76 % of control | T/C (dose: 157.0 mg/kg/injection, schedule: Q01DX011 (ip), vehicle: carboxymethylcellulose (CMC)): 79 % of control | T/C [6]: 95 % of control | T/C (dose: 298.9 mg/kg/injection, schedule: Q01DX011 (ip), vehicle: carboxymethylcellulose (CMC)): 120 % of control

OCC1OC(n2cnc3c(I)ncnc32)C(O)C1O (stereo not given)
T/C (dose: 30.0 mg/kg/injection, schedule: Q01DX011 (ip), vehicle: saline): 73 % of control | T/C (dose: 60.0 mg/kg/injection, schedule: Q01DX011 (ip), vehicle: saline): 73 % of control | T/C (dose: 120.0 mg/kg/injection, schedule: Q01DX011 (ip), vehicle: saline): 49 % of control | T/C (dose: 240.0 mg/kg/injection, schedule: Q01DX011 (ip), vehicle: saline): 29 % of control

CC(C)C(Nc1ncnc2nc[nH]c12)C(=O)O (stereo not given)
T/C (dose: 12.0 mg/kg/injection, schedule: Q01DX011 (ip), vehicle: methylcellulose (MC)): 180 % of control | T/C (dose: 25.0 mg/kg/injection, schedule: Q01DX011 (ip), vehicle: methylcellulose (MC)): 230 % of control | T/C (dose: 50.0 mg/kg/injection, schedule: Q01DX011 (ip), vehicle: methylcellulose (MC)): 239 % of control | T/C (dose: 100.0 mg/kg/injection, schedule: Q01DX011 (ip), vehicle: methylcellulose (MC)): 192 % of control

S=c1[nH]c(=S)c2[nH]cnc2[nH]1
T/C (dose: 25.0 mg/kg/injection, schedule: Q01DX011 (ip), vehicle: carboxymethylcellulose (CMC)): 84 % of control | T/C [3]: 58 % of control | T/C [4]: 31 % of control

CSc1ncc(Br)c(Nc2ccc(Br)cc2)n1
T/C (dose: 15.0 mg/kg/injection, schedule: Q01DX011 (ip), vehicle: methylcellulose (MC)): 94 % of control | T/C (dose: 31.0 mg/kg/injection, schedule: Q01DX011 (ip), vehicle: methylcellulose (MC)): 103 % of control | T/C (dose: 62.0 mg/kg/injection, schedule: Q01DX011 (ip), vehicle: methylcellulose (MC)): 123 % of control | T/C [5]: 114 % of control | T/C [6]: 86 % of control
